Reference: patent US12240844B2 (Voronoi, Inc., priority 2019, dated 2025)

Key:
Assay in all cases: scanMAX Kinase panel (DiscoverX), % control
Format in all cases: binding
Details in all cases: <35% = active
GAK = target: T1, GAK (Homo sapiens, UniProt O14976)
T1 construct: purchased DiscoverX
T1 sequence (O14976 1-1311): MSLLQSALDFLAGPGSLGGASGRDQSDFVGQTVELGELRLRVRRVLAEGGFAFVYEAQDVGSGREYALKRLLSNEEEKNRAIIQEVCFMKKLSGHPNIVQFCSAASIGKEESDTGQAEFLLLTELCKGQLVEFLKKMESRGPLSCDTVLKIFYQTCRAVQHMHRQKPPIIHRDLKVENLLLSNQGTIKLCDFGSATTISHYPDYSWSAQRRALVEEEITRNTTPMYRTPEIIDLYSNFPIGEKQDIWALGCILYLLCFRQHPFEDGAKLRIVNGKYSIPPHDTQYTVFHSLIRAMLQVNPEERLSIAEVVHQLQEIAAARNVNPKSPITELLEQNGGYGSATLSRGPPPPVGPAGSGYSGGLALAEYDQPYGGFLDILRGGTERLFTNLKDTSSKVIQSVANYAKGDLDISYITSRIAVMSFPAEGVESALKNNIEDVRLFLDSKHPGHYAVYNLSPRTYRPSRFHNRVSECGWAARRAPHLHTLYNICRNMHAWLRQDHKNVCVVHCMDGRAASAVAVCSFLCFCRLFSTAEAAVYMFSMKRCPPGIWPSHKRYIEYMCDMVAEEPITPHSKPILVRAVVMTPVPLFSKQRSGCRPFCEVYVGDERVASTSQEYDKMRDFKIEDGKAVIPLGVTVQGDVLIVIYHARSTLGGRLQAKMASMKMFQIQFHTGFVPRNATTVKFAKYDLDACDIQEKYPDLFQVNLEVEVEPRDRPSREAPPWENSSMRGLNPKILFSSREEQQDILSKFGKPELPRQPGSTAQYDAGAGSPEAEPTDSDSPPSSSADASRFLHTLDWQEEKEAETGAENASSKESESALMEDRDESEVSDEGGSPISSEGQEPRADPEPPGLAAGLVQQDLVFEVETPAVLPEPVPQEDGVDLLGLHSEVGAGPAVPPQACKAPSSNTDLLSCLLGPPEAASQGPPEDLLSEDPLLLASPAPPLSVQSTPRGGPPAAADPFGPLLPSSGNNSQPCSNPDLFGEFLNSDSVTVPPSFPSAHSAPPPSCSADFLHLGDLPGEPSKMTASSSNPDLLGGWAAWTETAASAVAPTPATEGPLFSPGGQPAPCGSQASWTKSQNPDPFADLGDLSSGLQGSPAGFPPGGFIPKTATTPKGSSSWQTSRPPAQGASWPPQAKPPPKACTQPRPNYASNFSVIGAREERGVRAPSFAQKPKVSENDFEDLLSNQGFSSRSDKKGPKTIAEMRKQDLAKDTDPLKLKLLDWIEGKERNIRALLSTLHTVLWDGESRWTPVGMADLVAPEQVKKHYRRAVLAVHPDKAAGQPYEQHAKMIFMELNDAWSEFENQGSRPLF
Description: (§1) Specifically, for Examples 162, 160, 105, 217, 205, 96, 207, 184, 206, 221, 238, and 237 selected among the example compounds of the present invention, it was decided to measure enzyme (kinase) selectivity by DiscoverX, and the experiment was conducted using a panel for scanMAX™ Kinase analysis. At this time, the concentration of the drug treated with the enzyme was 1 uM in DMSO, the control percentage (% control) was determined in the same way as in Equation 1 below, and the results were shown in Table 6 below. [formula] Here, the positive control refers to a compound showing a control percentage of 0%, and the negative control is DMSO, indicating a control percentage of 100%. Also, in the enzyme selectivity of the present invention, if the control percentage for each enzyme was <35% (i.e., less than 35%), it was determined to have activity against the relevant enzyme.

MYLK = target: T2, MYLK (Homo sapiens, UniProt Q15746)
T2 construct: purchased DiscoverX
Description: as §1

DYRK1A = target: T3, DYRK1A (Homo sapiens, UniProt Q13627)
T3 construct: purchased DiscoverX
Description: as §1

ALK (C1156Y) = target: T4, ALK (C1156Y) (Homo sapiens, UniProt Q9UM73, C1156Y)
T4 construct: purchased DiscoverX
Description: as §1

DYRK2 = target: T5, DYRK2 (Homo sapiens, UniProt Q92630)
T5 construct: purchased DiscoverX
T5 sequence (Q92630 1-601): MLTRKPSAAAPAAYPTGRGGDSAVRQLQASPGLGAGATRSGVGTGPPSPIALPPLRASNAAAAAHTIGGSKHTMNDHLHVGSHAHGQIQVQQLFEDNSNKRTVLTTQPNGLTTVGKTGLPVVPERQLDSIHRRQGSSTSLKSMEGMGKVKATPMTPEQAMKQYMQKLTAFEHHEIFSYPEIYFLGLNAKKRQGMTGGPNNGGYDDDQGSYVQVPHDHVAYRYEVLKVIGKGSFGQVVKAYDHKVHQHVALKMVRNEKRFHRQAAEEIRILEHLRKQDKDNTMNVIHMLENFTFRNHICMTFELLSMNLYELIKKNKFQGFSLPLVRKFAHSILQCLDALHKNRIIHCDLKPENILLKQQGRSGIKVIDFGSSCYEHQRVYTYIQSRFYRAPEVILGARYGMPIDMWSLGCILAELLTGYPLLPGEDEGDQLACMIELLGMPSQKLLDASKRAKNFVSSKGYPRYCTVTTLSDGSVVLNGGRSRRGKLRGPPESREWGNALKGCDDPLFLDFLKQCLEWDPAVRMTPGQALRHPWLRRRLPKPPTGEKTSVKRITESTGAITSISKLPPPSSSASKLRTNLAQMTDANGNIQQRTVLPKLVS
Description: as §1

CLK2 = target: T6, CLK2 (Homo sapiens, UniProt P49760)
T6 construct: purchased DiscoverX
Description: as §1

T6 sequence (P49760 whole entry): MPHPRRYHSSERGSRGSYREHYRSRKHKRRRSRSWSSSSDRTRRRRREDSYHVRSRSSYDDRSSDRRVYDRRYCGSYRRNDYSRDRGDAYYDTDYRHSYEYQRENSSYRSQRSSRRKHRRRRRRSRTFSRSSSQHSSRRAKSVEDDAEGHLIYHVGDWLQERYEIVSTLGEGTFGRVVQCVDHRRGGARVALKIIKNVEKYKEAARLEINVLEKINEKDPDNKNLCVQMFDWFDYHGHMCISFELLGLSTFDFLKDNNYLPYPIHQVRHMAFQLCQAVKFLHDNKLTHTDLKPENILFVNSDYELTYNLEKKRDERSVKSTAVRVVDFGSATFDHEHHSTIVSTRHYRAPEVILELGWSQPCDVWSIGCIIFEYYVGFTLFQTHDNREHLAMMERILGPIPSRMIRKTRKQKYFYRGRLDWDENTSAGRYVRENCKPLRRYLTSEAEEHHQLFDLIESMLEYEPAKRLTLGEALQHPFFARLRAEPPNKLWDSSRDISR
T2 sequence (Q15746 whole entry): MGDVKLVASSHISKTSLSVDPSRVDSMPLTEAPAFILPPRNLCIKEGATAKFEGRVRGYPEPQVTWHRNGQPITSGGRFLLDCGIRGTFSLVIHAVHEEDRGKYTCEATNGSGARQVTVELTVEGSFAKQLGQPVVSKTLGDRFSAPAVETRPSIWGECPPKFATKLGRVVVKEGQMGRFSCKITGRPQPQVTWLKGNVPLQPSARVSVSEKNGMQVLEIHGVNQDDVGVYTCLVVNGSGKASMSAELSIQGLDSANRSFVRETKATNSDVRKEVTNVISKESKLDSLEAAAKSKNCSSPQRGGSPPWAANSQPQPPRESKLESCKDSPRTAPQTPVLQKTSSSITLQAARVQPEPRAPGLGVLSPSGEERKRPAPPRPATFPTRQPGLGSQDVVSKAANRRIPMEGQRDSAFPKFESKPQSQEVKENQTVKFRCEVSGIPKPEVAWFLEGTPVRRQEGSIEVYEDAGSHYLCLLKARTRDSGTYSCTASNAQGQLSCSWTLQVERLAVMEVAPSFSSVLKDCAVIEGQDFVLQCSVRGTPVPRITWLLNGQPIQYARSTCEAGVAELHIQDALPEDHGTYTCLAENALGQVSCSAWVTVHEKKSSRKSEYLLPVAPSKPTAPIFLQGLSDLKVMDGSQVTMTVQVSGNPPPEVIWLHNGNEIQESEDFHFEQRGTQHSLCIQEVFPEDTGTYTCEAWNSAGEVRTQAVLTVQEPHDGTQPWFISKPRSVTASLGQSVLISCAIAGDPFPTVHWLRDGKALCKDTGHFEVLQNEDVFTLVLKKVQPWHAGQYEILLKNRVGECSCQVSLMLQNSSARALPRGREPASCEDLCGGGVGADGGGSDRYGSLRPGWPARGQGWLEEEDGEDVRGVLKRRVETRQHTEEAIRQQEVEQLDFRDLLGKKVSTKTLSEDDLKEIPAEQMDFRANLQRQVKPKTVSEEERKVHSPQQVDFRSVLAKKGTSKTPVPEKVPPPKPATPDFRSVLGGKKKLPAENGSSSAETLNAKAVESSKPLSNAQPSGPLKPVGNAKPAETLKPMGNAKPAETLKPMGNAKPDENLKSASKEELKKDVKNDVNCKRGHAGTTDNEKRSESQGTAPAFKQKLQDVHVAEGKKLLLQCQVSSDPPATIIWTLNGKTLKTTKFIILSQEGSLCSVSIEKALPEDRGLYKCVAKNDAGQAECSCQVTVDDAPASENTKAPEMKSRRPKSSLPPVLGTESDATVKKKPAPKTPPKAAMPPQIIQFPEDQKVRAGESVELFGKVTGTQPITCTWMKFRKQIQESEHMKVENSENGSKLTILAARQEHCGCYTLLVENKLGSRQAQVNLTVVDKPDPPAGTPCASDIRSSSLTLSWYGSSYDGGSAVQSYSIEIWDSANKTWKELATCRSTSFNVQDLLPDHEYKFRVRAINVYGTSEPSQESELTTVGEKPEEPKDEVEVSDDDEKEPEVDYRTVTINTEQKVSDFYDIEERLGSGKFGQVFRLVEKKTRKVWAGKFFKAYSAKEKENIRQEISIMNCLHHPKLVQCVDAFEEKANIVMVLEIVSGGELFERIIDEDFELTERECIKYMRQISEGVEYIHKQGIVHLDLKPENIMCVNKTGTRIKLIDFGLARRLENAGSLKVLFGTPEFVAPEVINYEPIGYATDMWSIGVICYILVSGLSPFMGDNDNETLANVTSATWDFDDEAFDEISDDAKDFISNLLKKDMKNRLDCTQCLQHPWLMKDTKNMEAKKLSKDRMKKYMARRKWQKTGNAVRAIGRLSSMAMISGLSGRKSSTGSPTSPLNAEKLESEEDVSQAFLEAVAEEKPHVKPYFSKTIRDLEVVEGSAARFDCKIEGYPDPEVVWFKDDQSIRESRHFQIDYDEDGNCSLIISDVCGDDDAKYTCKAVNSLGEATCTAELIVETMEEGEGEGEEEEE
T4 sequence (Q9UM73 19-1620 C1156Y): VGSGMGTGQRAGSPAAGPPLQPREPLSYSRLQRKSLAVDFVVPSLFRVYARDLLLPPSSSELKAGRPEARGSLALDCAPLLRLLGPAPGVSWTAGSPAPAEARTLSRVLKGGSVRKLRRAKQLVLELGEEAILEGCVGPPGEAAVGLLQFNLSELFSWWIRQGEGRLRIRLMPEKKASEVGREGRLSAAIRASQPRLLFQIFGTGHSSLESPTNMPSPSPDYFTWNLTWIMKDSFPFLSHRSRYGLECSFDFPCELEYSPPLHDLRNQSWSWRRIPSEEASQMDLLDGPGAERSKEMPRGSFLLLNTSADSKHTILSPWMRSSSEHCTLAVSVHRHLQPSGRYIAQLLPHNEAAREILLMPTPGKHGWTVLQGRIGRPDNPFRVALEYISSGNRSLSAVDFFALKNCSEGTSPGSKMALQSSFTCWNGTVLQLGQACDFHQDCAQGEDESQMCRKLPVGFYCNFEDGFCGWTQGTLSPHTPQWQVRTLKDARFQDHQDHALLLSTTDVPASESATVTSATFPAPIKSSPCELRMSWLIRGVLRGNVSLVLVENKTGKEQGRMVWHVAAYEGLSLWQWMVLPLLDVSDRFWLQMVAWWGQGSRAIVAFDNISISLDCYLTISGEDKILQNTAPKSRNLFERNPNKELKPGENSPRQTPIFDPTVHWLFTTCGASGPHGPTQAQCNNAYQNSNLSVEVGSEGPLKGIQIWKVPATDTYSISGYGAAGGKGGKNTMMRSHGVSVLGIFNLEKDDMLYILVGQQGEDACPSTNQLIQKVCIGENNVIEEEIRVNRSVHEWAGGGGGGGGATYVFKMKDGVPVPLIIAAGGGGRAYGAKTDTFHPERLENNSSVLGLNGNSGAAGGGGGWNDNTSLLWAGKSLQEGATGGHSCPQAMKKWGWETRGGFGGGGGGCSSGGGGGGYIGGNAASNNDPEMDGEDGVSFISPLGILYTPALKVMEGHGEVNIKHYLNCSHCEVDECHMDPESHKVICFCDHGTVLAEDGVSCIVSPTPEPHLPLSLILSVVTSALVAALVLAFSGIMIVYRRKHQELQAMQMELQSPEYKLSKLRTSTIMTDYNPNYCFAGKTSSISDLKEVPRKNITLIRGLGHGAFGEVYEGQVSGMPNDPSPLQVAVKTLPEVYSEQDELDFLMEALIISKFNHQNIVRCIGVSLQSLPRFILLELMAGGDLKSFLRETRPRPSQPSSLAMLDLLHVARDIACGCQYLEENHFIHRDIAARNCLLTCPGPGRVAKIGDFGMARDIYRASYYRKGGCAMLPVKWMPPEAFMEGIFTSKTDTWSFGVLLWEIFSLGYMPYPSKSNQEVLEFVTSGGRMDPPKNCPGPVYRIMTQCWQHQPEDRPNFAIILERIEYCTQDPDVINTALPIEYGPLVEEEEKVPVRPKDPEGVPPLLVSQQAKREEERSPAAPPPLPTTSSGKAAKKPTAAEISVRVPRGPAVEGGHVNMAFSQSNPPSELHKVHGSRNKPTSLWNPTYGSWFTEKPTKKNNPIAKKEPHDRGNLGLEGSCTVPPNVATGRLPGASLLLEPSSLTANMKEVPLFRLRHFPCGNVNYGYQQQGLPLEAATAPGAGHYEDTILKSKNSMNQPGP

SMILES | remaining binding at 1 µM (GAK) [%] | remaining binding at 1 µM (MYLK) [%] | remaining binding at 1 µM (DYRK1A) [%] | remaining binding at 1 µM (ALK (C1156Y)) [%] | remaining binding at 1 µM (DYRK2) [%] | remaining binding at 1 µM (CLK2) [%]
CCNc1cc(Nc2ccc(S(=O)(=O)N3CCC(N4CCOCC4)CC3)c3c2OCCO3)nc2[nH]cc(C(F)(F)F)c12 [Example 96, N^4-ethyl-N^6-(8-((4-morpholonopiperidin-1-yl)sulfonyl)-2,3-dihydrobenzo [b] [1,4]dioxin-5-yl)-3-(trifluoromethyl)-1H-pyrrolo[2,3-b]pyridine-4,6-diamine] | 14 | 37 | 1.3 | 10 | 21 | 1.2
CCNc1cc(Nc2ccc(C(=O)N3CCC(N4C[C@@H]5C[C@H]4CO5)CC3)c3c2OCC3)nc2[nH]cc(C(F)(F)F)c12 [Example 105, (4-((1S,4S)-2-oxa-5-azabicyclo[2.2.1]heptan-5-yl)piperidin-1-yl)(7-((4-(ethylamino)-3-(trifluoromethyl)-1H-pyrrolo[2,3-b]pyridin-6-yl)amino)-2,3-dihydrobenzofuran-4-yl)methanone] | 4.8 | 1.3 | 0 | 2 | 8 | 0.35
CNc1cc(Nc2ccc(C(=O)N3CCC(N4CCOCC4)CC3)c3c2OCCO3)nc2[nH]cc(C(F)(F)F)c12 [Example 160, (8-((4-(methylamino)-3-(trifluoromethyl)-1H-pyrrolo[2,3-b]pyridin-6-yl)amino)-2,3-dihydrobenzo [b] [1,4]dioxin-5-yl)(4-morpholinopiperidin-1-yl)methanone] | 6.3 | 0 | 0.35 | 0.9 | 20 | 0.65
CCCNc1cc(Nc2ccc(C(=O)N3CCC(N4CCOCC4)CC3)c3c2OCCO3)nc2[nH]cc(C(F)(F)F)c12 [Example 162, (4-morpholinopiperidin-1-yl)(8-((4-(propylamino)-3-(trifluoromethyl)-1H-pyrrolo[2,3-b]pyridin-6-yl)amino)-2,3-dihydrobenzo[b] [1,4]dioxin-5-yl)methanone] | 6.3 | 0 | 0.35 | 0.9 | 20 | 0.65
CNc1cc(Nc2ccc(S(=O)(=O)N3CCC(N4CCOCC4)CC3)cc2OC)nc2[nH]cc(C(F)(F)F)c12 [Example 184, N^6-(2-methoxy-4-((4-morpholinopiperidin-1-yl)sulfonyl)phenyl)-N^4-methyl-3-(trifluoromethyl)-1H-pyrrolo[2,3-b]pyridine-4,6-diamine] | 27 | 8 | 0.1 | 7 | 14 | 0.3
CNc1cc(Nc2ccc(P3(=O)CCN(C4CC4)CC3)cc2OC)nc2[nH]cc(C(F)(F)F)c12 [Example 205, 1-cyclopropyl-4-(3-methoxy-4-((4-(methylamino)-3-(trifluoromethyl)-1H-pyrrolo[2,3-b]pyridin-6-yl)amino)phenyl)-1,4-azaphosphinane 4-oxide] | 12 | 0 | 0.25 | 1.3 | 28 | 0.15
CCNc1cc(Nc2ccc(P3(=O)CCN(C4CC4)CC3)cc2OC)nc2[nH]cc(C(F)(F)F)c12 [Example 206, 1-cyclopropyl-4-(4-((4-(ethylamino)-3-(trifluoromethyl)-1H-pyrrolo[2,3-b]pyridin-6-yl)amino)-3-methoxyphenyl)-1,4-azaphosphinane 4-oxide] | 29 | 3 | 2 | 5.3 | 45 | 3.1
COCCNc1cc(Nc2ccc(P3(=O)CCN(C4CC4)CC3)cc2OC)nc2[nH]cc(C(F)(F)F)c12 [Example 207, 1-cyclopropyl-4-(3-methoxy-4-((4-((2-methoxyethyl)amino)-3-(trifluoromethyl)-1H-pyrrolo[2,3-b]pyridin-6-yl)amino)phenyl)-1,4-azaphosphinane 4-oxide] | 38 | 5.3 | 0.4 | 1.8 | 18 | 7.2
CNc1cc(Nc2ccc(C(=O)N3CC[C@H](N4CCOCC4)C3)c3c2OCC3)nc2[nH]cc(C(F)(F)F)c12 [Example 217, (S)-(7-((4-(methylamino)-3-(trifluoromethyl)-1H-pyrrolo[2,3-b]pyridin-6-yl)amino)-2,3-dihydrobenzofuran-4-yl)(3-morpholinopyrrolidin-1-yl)methanone] | 9.9 | 1.8 | 0 | 3.9 | 9.7 | 0.55
O=C(c1ccc(Nc2cc(C3CC3)c3c(C(F)(F)F)c[nH]c3n2)c2c1OCCO2)N1CCC(N2CCOCC2)CC1 [Example 221, (8-((4-cyclopropyl-3-(trifluoromethyl)-1H-pyrrolo[2,3-b]pyridin-6-yl)amino)-2,3-dihydrobenzo [b] [1,4]dioxin-5-yl)(4-morpholinopiperidin-1-yl)methanone] | 12 | 30 | 5.1 | 12 | 18 | 8.2
O=C(c1ccc(Nc2cc(C3CC3)c3c(C(F)(F)F)c[nH]c3n2)c2c1CCO2)N1CC[C@H](N2CCOCC2)C1 [Example 237, (S)-(7-((4-cyclopropyl-3-(trifluoromethyl)-1H-pyrrolo[2,3-b]pyridin-6-yl)amino)-2,3-dihydrobenzofuran-4-yl)(3-morpholinopyrrolidin-1-yl)methanone] | 15 | 15 | 2.2 | 9.7 | 62 | 0
